According to patent US20140288110A1, “PPAR MODULATORS” (EVOLVA SA, priority 2006, published 2014):

How the values were obtained:
mPPARdeltaLBD = biological target: T1, mPPARdeltaLBD (Mus musculus, UniProt P35396); assay: PPARdelta transactivation assay (mPPARdeltaLBD); assay type: cell-based
T1 construct: expressed in transfected cells
T1 sequence (P35396 210-438 limits assumed): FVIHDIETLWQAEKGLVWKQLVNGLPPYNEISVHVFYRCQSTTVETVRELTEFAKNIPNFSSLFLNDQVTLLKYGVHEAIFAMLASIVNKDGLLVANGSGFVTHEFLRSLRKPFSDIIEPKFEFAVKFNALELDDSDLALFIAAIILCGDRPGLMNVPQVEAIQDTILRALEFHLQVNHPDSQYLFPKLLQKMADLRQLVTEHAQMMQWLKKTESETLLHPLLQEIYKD
Description: This example describes a transactivation assay for determining PPARdelta modulating activity.
DPD and other ligands are tested for their ability to transactivate PPARdelta essentially as described in Example 1.

mPPARalphaLBD = biological target: T2, mPPARalphaLBD (Mus musculus, UniProt P23204); assay: PPARalpha transactivation assay (mPPARalphaLBD); assay type: cell-based
T2 construct: expressed in transfected cells
T2 sequence (P23204 239-466 limits assumed): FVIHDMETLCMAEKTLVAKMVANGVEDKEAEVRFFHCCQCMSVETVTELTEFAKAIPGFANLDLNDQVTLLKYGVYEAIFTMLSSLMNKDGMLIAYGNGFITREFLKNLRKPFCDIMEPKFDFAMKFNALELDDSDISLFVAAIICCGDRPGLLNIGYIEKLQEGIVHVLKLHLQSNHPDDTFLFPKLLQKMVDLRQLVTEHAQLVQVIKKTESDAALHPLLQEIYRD
Description: This example describes a transactivation assay for determining PPARalpha modulating activity.
DPD and other ligands are tested for their ability to transactivate PPAR alpha essentially as described in Example 1.

3T3-L1 / MEFs = assay: Adipocyte differentiation assay, induction, Oil Red O staining; assay type: cell-based, mouse; conditions: induction assay, Oil Red O
Description: This example describes an assay for determining adipocyte differention. Compounds are tested to see whether they induce adipocyte differentiation and also to see whether they inhibit adipocyte differention.
MEFs were grown in AmnioMax basal medium (Gibco) supplemented with 7.5% Amniomax supplement C-100 (Gibco), 7.5% Fetal Bovine Serum (FBS), 2 mM Glutamine, 62.5 μg/ml penicillin and 100 μg/ml Streptomycin (growth medium). At confluence, MEFs were induced to differentiation in growth medium with the addition of 1 microM dexamethasone (Sigma) 0.5 mM isobutylmethylxanthine (Sigma), 5 microg/ml insulin (Sigma) and 10 microM test compound dissolved in DMSO or DMSO alone. Medium was subsequently renewed every 48 hrs with growth media supplemented with 5 microg/ml Insulin and ligand or DMSO.
Briefly, to test compounds as inducers of adipocyte differentiation, 3T3-L1 are grown to confluence in DMEM with 10% Calf serum (CS), typically in 24 well dishes. At 2 days post confluence (day 0), cells are induced to differentiate with DMEM supplemented with 10% fetal bovine serum (FBS), 1 μM dexamethasone and the test compound ([…], 1 and 10 microM). BRL49653 (1.0 μM dissolved in 100% Me2SO) is used as a positive control. After 48 h, the cells are re-fed with DMEM containing 10% FBS supplemented with the test compound or the positive control. From day 4, cells are grown in DMEM with 10% FBS and are changed every second day until day 8. At day 8, cells are stained with Oil Red O as described below.
(§1) Cells cultured as described above are used for Oil Red staining. Dishes are washed in PBS and cells were fixed in 3.7% paraformaldehyde for 1 h and stained with oil red O as described in (Hansen et al 1999). Oil red O solution stock solution is prepared by dissolving 0.5 g of Oil Red O (Sigma) in 100 ml of isopropanol. Oil re O working solution is prepared by diluting a stock solution with water (6:4) followed by filtration.
Table II summarizes results obtained with different analogs of DPD (SN1), “0” representing similar results to DPD, “−1” representing even less adipocyte differentiation, “+1” representing more adipocyte differentiation (both relative to DPD) and “−” meaning not assayed.

3T3-L1 cells = assay: Adipocyte differentiation assay, inhibition, Oil Red O staining; assay type: cell-based
Description: To test compounds as inhibitors of adipocyte differentiation, 3T3-L1 cells are grown as above until two-day postconfluence (designated day 0), after which the cells are induced to differentiate with DMEM containing 10% fetal bovine serum (FBS), 1 μM dexamethasone (Sigma), 0.5 mM methylisobutylxanthine (Sigma), 1 μg/ml insulin (Roche Molecular Biochemicals) and the test-compound. Cells induced to differentiate in presence of solvent of the test-compounds are used as positive control. After 48 h, the cells are re-fed with DMEM containing 10% FBS supplemented with the test compound or the positive control. From day 4, cells are grown in DMEM with 10% FBS and are changed every second day until day 8. At day 8, cells are stained with Oil Red O as described below.
as §1

[1] = test system: human cervical carcinoma cell line (HeLa); assay: Inhibition of cancer cell proliferation, HeLa, flow cytometry; assay type: cell-based; conditions: 48 hours of treatment, read-out: inhibition of proliferation of HeLa cells
Description: A human cervical carcinoma cell line (HeLa) engineered to stably express a recombinant biosensor reporter activity and a non-cancer cell line, HaCaT (Boukamp et al., 1988, J. Cell Biol 106(3):761-771) was used with a Caspa Tag kit (commercially available eg from Chemicon). The detection of proliferation was carried out using a high content screening automated flow cytometer.
DPD (Substance 1) was diluted to 20 microM in cell culture medium without serum adjusted to 1% DMSO. Detection of cellular events was performed in duplicate in 96-well plates after 48 hours of treatment in the FL2 (dilution of a proliferative marker) channels of a HTS flow cytometer (FACS Calibur HTS, Becton Dickenson). At day 1, cells were seeded in 96 well plates. Cells were treated with DPD and the appropriate controls on day 2 and analysis was carried out on day 4.

3T3-L1 preadipocytes = assay: Glucose uptake assay; assay type: cell-based; set-up: dose or concentration left out as unconfirmed; conditions: SN1
Description: Glucose uptake assays are important to establish the suitability of a compound for the treatment of insulin resistance.
Briefly, 3T3-L1 preadipocytes are grown in 12-well plates until confluence. Cells are washed with serum-free DMEM and incubated with 1 ml of the same medium at 37° C. for 1-2 h. The cells are then washed with […] (KRP) buffer and then incubated with 0.9 ml KRP buffer at 37° C. for 30 min. Insulin is added to the cells at 0, 0.3, 1 and 3 nM final concentration and incubated for 15 min at 37° C. Glucose uptake is initiated by the addition of 0.1 ml of Krebs-Ringer phosphate (KRP) buffer supplemented with 10 mM [^3H] 2-deoxy-D-glucose (1 mCi/l). After a 10 minute incubation at 37° C., the medium is aspirated and plates washed with ice-cold PBS to terminate the induced glucose uptake. The cells are lyzed with 0.5 ml 1% Triton X-100 and radioactivity levels determined using a scintillation counter. The results are depicted in FIG. 7.

- increase of PPAR delta transactivation (mPPARdeltaLBD): no or little increase in transactivation
- increase of PPAR alpha transactivation (mPPARalphaLBD): no transactivation
SMILES: O=C(O)CC/C=C\C[C@@H]1CO[C@H](c2ccccc2Cl)O[C@@H]1c1ccccc1O (racemic) [SN1, 4-(Z)-6-(2-o-chlorophenyl-4-o-hydroxyphenyl-1,3-dioxan-cis-5-yl) hexenoic acid]
- induction of adipocyte differentiation (red staining), in words (3T3-L1 / MEFs): very little red staining
- inhibition of adipocyte differentiation (3T3-L1 cells): no significant effect
- inhibition at 20 µM [1]: 90%
- glucose uptake compared with Avandia (3T3-L1 preadipocytes): same level of glucose uptake
